Values quoted from earlier work as cited in US20250073182A1, “LOW DOSAGE GOSSYPOL CON[…] RODENTS” (priority 2023, published 2025).

Experiments:
[1] = system: ovarian follicles of female mice; conditions: in vitro, all stages of development (Luz et al. 2018; Ding et al. 2021)
female rats = female rats (Gadelha et al. 2014; Lin, et al., 1985)
[2] = gossypol in cottonseed meal at 15 mg/kg per day for 4 weeks
[3] = low doses, after 4 weeks (Nadakavukaren et al. 1979)

In the case of Cc1cc2c(C(C)C)c(O)c(O)c(C=O)c2c(O)c1-c1c(C)cc2c(C(C)C)c(O)c(O)c(C=O)c2c1O (atropisomer, axis not shown) [gossypol], the “epididymal and accessory sex glands weights” value (male rats; daily 30 mg/kg for 6 weeks or 7.5 and 15 mg/kg for 12 weeks (Chang et al. 1982)) is given as “reduced”, the fertility (male rats; [2]) is given as “reduced” and the toxicity (male rats; [2]) is given as “absent”. The “effects at high doses in rats” value (male rats; high doses (Romualdo et al. 2002; Gadelha et al. 2014)) was “reduced food intake, anorexia, and hepatic toxicity”, the offspring produced (male rats; [3]) was “no offspring were produced” and the spermatozoa with defects (male rats; [3]) was “over 50%”. For the same compound, the pregnancy rates (male rats; male rats given ≥10 mg/kg/d, bred to fertile females, as early as 6 weeks (Randel et al. 1992)) was “significantly lower”, the “fertility after withdrawal of treatment” value (male rats; rats (Chang et al. 1982)) was “recovery in fertility” and the “number of atretic follicles” value [1] was “increased”. For the same compound, the “number of viable follicles” value [1] was “significantly decreased”, the estrous cycle (female rats) was “longer estrous cycle” and the seminal vesicle weight (male mice; 20 or 40 mg/kg body weight, 3 weeks (Singh and Rath, 1990)) was “significant decrease”. For the same compound, the sperm counts (male mice; two mouse strains, 10 and 20 mg/kg BW orally for 4 weeks (Hunt and Mittwoch 1984)) was “reduced”.
